In patent US12415939B2, “Nano-adhesive and surface primer compound and use thereof” (The Regents of the University of California, priority 2015, dated 2025):
“And” between values parts separate entries of the source, which are not always exact repeats. Equal values may be shown once.

Key:
[1] = Stability of isolated compound over time (NMR observation); format: physicochemical; settings: after isolation
Experimental: Attempts to increase the level of purity by either recrystallization or HPLC were unsuccessful and the compound was used “as is” for further study. It is recommended that extra care is taken to ensure that this compound be protected from atmospheric oxygen, and be used and analyzed immediately after isolation. […] Reaction time=4 days (96 hours) 69% isolated yield.

[2] = Surface forces apparatus (SFA) cohesion/adhesion between thin films on mica; format: physicochemical; settings: symmetric films adsorbed from 5 mM, DI water, mica
Experimental: The interaction between two surfaces can be measured with nano-Newton level force resolution and Angstrom level resolution in the separation distance between the surfaces. The details of the SFA techniques have been describe in a work by Israelachvili et al. In a typical SFA experiment (FIG. 2C), the distance and the force between the surfaces are measured simultaneously. To begin with, the instrument is calibrated at large separation distances. When the two surfaces are not interacting, i.e., they are separated by large distances, the change in the separation between them is equal to the distance through which the motor moves the lower surface towards or away from the upper surface (or the upper surface driven by the piezo-tube moves towards the lower surface). However, once the surfaces are close enough to start interacting with each other, the measured separation distance deviates from the expected separation calibrated when there is no force between the surfaces. This deviation is due to the deflection of the double cantilever spring and is directly proportional to the force acting normally between the two opposing surfaces. Thus the normal force can be measured using Hooke's law, F=kΔx, where k is the spring constant of the double-cantilever spring and Δx=Dactual−Dapplied is the deflection of the spring, determined by taking the difference between the applied change in position of one of the surfaces Dapplied and the actual change in distance measured between the surfaces Dactual. The actual distance, Dactual, between the surfaces can be measured by multiple beam interferometry (MBI) and will be discussed below.
The distance between the surfaces, shape of the interface and the refractive index of the media between the surfaces can be accurately determined by Multiple Beam Interferometry (MBI) technique. In this technique, white light is directed through two back-silvered mica surfaces (or uniform and same thickness). As a white light passes between the mica surfaces, it undergoes interference due to the optical trap set up by the back silver on each of these surfaces giving rise to discrete wavelengths of light (FIG. 2C). These wavelengths of light are resolved in a spectrometer creating interference fringes known as ‘fringes of equal chromatic order’ (FECO). Since mica is birefringent, the FECO appears as doublets and termed as β and γ. Alternate fringes are termed as odd and even fringes with odd fringes having nodes at the center and even fringes with anti-nodes in the center. The FECO is then recorded on a camera and analyzed to determine the distance between the surfaces using the following equations: […]
The adhesion/cohesion energy of the synthetic zwitterionic molecules was investigated in SFA (SurForce LLC, Santa Barbara, CA). Two molecularly smooth freshly cleaved back silvered mica surfaces glued on cylindrical silica discs of radius of curvature, R˜2 cm, were mounted in the SFA and 50 μL of a colloidal dispersion of the synthetic molecules in DI water were injected between the surfaces at different concentrations (C=0.5-5 mM) and the forces between the thin films of the molecules were measured by Multiple Beam Interferometry (MBI). The adhesion forces between Z-Cat-C10 molecules on various surfaces, e.g., silica and copper, were also measured by AFM (MFP-3D, Asylum research, Goleta, CA) in DI water and ambient conditions, respectively, at room temperature. AFM probes with a silicon dioxide particle (10, 5, and 1 μm, respectively) on a silicon nitride (SN) cantilever-0.6 N m^−1 were purchased from Novascan Technologies, Inc (Ames, IA). Cantilever spring constants were measured for each force run. Images of Z-Cat-C10 coating on silicon wafer and copper plates were visualized in an AFM. […]

[3] = Contact angle measurements on SAM-modified substrates; format: physicochemical; settings: SAM-modified nano-grooved SiO2
Experimental: The nano-grooved SiO2 substrates passivated with Z-Cat-Ben or Z-Cat-Ben-F SAMs were prepared with the same procedure described above. For the reference substrate, the pre-cleaned and ultraviolet/ozone-treated (for 10 min) nano-grooved SiO2 substrate was passivated with n-decyltrichlorosilane (Gelest Inc.) in toluene solution (1% by volume) at 80° C. for 20 min in ambient air. Then, the substrate was subsequently sonicated in toluene and rinsed with additional toluene several times. Anhydrous chlorobenzene (50 μL) was used as a droplet dropping on the substrates. All contact angle images were taken at the direction perpendicular to nano-grooves in the substrates using Dataphysics OCA 15EC goniometer.

[4] = n-DTS-modified nano-grooved SiO2, earlier reports; cited from earlier work
[5] = AFM height profiles of adsorbed primers; format: physicochemical
Experimental: Each primer solution (1 wt %) was prepared in methanol (for P1-P3) or DMSO (for P4). The primer solution was drop cast onto a freshly cleaved mica or glass surface, and kept at room temperature for 1 min. Subsequently, the surfaces were thoroughly rinsed with the respective solvents and dried with argon. All images, surface profiles and surfaces roughnesses were collected using an Asylum MFP-3D standard system (Asylum Research, Santa Barbara, CA) using silicon cantilevers (FORTGG-50, Applied NanoStructures, Santa Clara, CA) (FIGS. 48C and 49).

[6] = Lap shear test of cured PMA resin on primed silica/glass; settings: second value of each pair (silica)
Experimental: (§1) 1 wt % primer solution was spread on mica, glass, tooth enamel, or a silicon wafer and incubated for 1 min, followed by thorough washing with methanol (for MDP, P1-P3) or DMSO (for P4) and drying by flowing nitrogen. The surfaces were exposed to a basic aqueous solution (pH 9, using sodium hydroxide), incubated for 1 min, and drying by flowing nitrogen (see FIG. 52). The methacrylic comonomer blend (Bis-GMA, TEGDMA, DMAEMA and CQ) was packed in a gelatin capsule (size #4, 5-mm diameter, Torpac Inc.) and placed up on top of the primer-treated substrates. The comonomer blend was cured (or crosslinked) for 1 min using a portable dental curing lamp (Foshan Liang Ya Dental Co., LY-A180, 420-480 nm, 1200-2000 mW·cm^−2) (see FIG. 53). Uniaxial compression was applied to the capsule at a rate of 0.05 inch min^−1 using a materials testing system (MTS Bionix 200) until the capsules are separated from the substrate. The lap shear fracture measurements were repeated at least 10 times for each condition.

[7] = tested on: L929 mammalian fibroblast cells; assay: Cell viability assay on surface treated glass (ISO 10993); format: cell-based; settings: primed glass surface, 3 days, trypan blue
Experimental: L929 mammalian fibroblast cells were purchased from the Korean Cell Line Bank (Seoul, Korea) and cultured in Roswell Park Memorial Institute (RPMI) 1640 media (Life Technologies) with 10% fetal bovine serum, 25 mM sodium bicarbonate and 1% penicillin-streptomycin. Silane-grafted and Catechol (P3) primed glass slides were prepared by following procedures described in section 6 and 3, respectively. Each glass substrate was placed on the 100π cell culture plate and sterilized by 70% ethanol solution. After equilibrated in phosphate buffered saline (PBS) and media for 5 min each, L929 cells were seeded onto the glass substrates at a density of 1×10^6 cells per plate. Cells were incubated for 3 days in 5% CO2 at 37° C. After 3 days, the substrates were transferred to new culture plates and washed extensively with PBS. Cells were then detached by 0.05% trypsin-EDTA and stained with trypan blue solution to assess cell viability. Living cells are impermeable to the stain, whereas dead cells with compromised membranes turn blue. The number of live cells was counted using a standard hemocytometer. The bare glass slide without any modification served as a control (FIGS. 56A-56B).

[8] = Lap shear test of cured PMA resin on primed mica; settings: first value of each pair (mica)
Experimental: as §1

[9] = SFA adhesion of cured PMA resin between primer-treated mica surfaces
Experimental: Atomically-smooth muscovite mica sheets were freshly cleaved (thickness of 2-5 μm) and attached on another large freshly cleaved mica backing sheet under a laminar flow hood and placed in a desiccator for clean storage. To ensure use of a fresh surface for each experiment, mica was peeled away from the backing sheet and glued on cylindrical disks using an epoxy glue (EPON 1004 F® from Exxon Chemicals). In each experiment, the mica surfaces were treated with one of the primer solutions, as described for the lap shear experiments, and then mounted in the SFA in a cross cylindrical geometry. In contrast to typical SFA experiments, which use an interferometric method to calculate the disk-disk separation distances and thus the interaction forces, in the SFA used here for adhesion testing, the disk separations were directly measured using semiconductor strain-gauged double cantilever springs (k=1000-10000 N/m)(see FIG. 67). After separating the surfaces, 100 […]1 of comonomer blend was injected between the two surfaces. Then, ˜600 mN of load was applied, followed by visible light curing for 1 min using the portable dental curing lamp (see FIG. 54G). Adhesion strength of cured polymer toward the mica was measured by detaching (unloading) two surfaces. All loading and unloading were performed using a coarse micrometer at the velocity of […]. The SFA measurements were repeated at least 5 times for each condition.

[10] = QCM-D adsorption of primers; format: physicochemical
Experimental: A ‘static cell’ (often called ‘Open Module’) QCM-D (Q-Sense, Biolin Scientific) was employed to quantitatively evaluate the adsorption of each primer onto SiO2 surface using a quartz sensor (QSX 303, Biolin Scientific). Changes in resonance frequency (ΔF) and dissipation (ΔD) of the SiO2 were recorded and used to measure the adsorbed mass and layer viscoelasticity, respectively, of the primer deposited on the sensor. In detail, pure solvent (100 μl) was dropped onto the sensor and equilibrated for ˜20-30 min. Then, 2 wt % primer solution (100 μl) was dropped onto the sensor (this is labeled “Solution Drop-in” in FIG. 51) and equilibrated until the frequency and dissipation signals stabilized. To remove unbound primers, the sensor was rinsed with solvents (this is labeled “Solvent Rinsing” in FIG. 51) and equilibrated until frequency and dissipation signals stabilized.
Mass loss of P3 and P4 during the rinsing was negligible compared to P2 which lost 60% of initial mass, indicating outstanding adsorption efficiency of catechol-containing primers on SiO2 surfaces even compared to mussel foot protein adsorption (˜30% loss of mfp-3s^3). The priming thickness of P4 estimated by QCM-D is ˜3.1 nm which agrees with the average height of AFM images (˜3.5 nm), assuming that QCM-D measures the average thickness of a uniform layer. The smaller average thickness of P4 (˜3.1 nm) compared to the molecular contour length (˜4.8 nm) may be attributed to the flexible alkyl spacer in P4. The possibility of a softer, more flexible layer with P4 is supported by a higher change in dissipation (ΔD) compared to other primers.

[11] = Lap shear test of cured PMA resin on primed tooth enamel; parameters: species or system human
Experimental: as §1

## C[N+](C)(CCCc1ccc(O)c(O)c1)CCOP(=O)([O-])OCCCc1ccc(O)c(O)c1 [Z-Cat-Cat]
[1]
  stability over time: highly susceptible to degradation over time
[2]
  cohesion (or adhesion) energy Wc: 8.1±1.3 mJ m^−2

## CCCCCCCCCC[Si](Cl)(Cl)Cl [n-DTS, n-decyltrichlorosilane, reference compound]
[3]
  contact angle θ of chlorobenzene droplet: ≈ 31 °
[4]
  saturation hole mobilities: 23-58 cm^2 V^−1 s^−1

## C=CC(=O)OCC(O)Cc1ccc(O)c(O)c1 (stereo not shown) [P3, 3-(3,4-dihydroxyphenyl)-2-hydroxypropyl acrylate]
[5]; 1 wt.% solution, mica and glass
  adsorption seen by AFM: densely primed
[5]; mica
  AFM height: 1-2 nm
[6]
  lap shear strength σshear,max: 4.2±0.7 MPa
[7]
  contact cytotoxicity: non-toxicity was confirmed
[8]
  lap shear strength σshear,max: 0.8±0.2 MPa
[9]
  Pad relative to MDP primer: ~8 times
  Pad relative to Silane primer: ~2 times
  increase in adhesion vs plain mica (no primer): ~10 fold
[9]; n=5
  adhesion pressure Pad: 201.5±50.2 kPa and ~200 kPa
[10]
  thickness from QCM-D: ~1.6 nm
[10]; of initial mass
  mass loss during rinsing: negligible
[11]
  lap shear strength σshear,max: 3.0±0.3 MPa
